In US20220235043A1, “SUBSTITUTED SULFONAMIDE PYRROLOPYRIDINES AS JAK INHIBITORS” (ACLARIS THERAPEUTICS, INC., priority 2019, published 2022):

Tests used:
Tyk-2 = biological target: T1, Tyk-2 (Homo sapiens, UniProt P29597); assay: Tyk-2 enzyme activity assay (Thermo Fisher Selectscreen, Z-lyte); format: biochemical; conditions: read-out: Tyk-2 Inhibition IC50
T1 construct: purchased Thermo Fisher Scientific (SelectScreen service)
Method: (§1) The inhibitory potency of candidate compounds of JAK1, JAK2, and Tyk-2 was done at Thermo Fisher Scientific in their Selectscreen using a Z-lyte assay. Following are the assay details for each enzyme.
TYK2: The 2×TYK2/Tyr 03 mixture is prepared in 50 mM HEPES pH 6.5, 0.01% BRIJ-35, 10 mM MgCl2, 1 mM EGTA, 0.02% NaN3. The final 10 μL Kinase Reaction consists of 3.75-15 ng TYK2 and 2 μM Tyr 03 in 50 mM HEPES pH 7.0, 0.01% BRIJ-35, 10 mM MgCl2, 1 mM EGTA, 0.01% NaN3. After the one hour KinaseReaction incubation, 5 μL of a 1:4096 dilution of Development Reagent A is added.
(§2) Data reduction for JAK1, JAK2 and TYK2 is done the same, independent of the enzyme run. In summary, background signal is defined in the absence of enzyme and uninhibited signal is defined in the presence of vehicle (2% DMSO) alone. Compounds were evaluated in an 11 point dose-response ranging from […] to 0.34 nM. IC50 values of compounds are determined using a 4 parameter logistical fit of emission ratio as a function of the concentration of compound.

JAK2 = biological target: T2, JAK2 (Homo sapiens, UniProt O60674); assay: JAK2 enzyme activity assay (Thermo Fisher Selectscreen, Z-lyte); format: biochemical; conditions: read-out: JAK2 Inhibition IC50
T2 construct: purchased Thermo Fisher Scientific (SelectScreen service)
Method: as §1
JAK2: The 2×JAK2/Tyr 06 mixture is prepared in 50 mM HEPES pH 7.5, 0.01% BRIJ-35, 10 mM MgCl2, 1 mM EGTA. The final 10 μL Kinase Reaction consists of 0.12-0.5 ng JAK2 and 2 μM Tyr 06 in 50 mM HEPES pH 7.5, 0.01% BRIJ-35, 10 mM MgCl2, 1 mM EGTA. After the one hour Kinase Reaction incubation, 5 μL of a 1:128 dilution of Development Reagent A is added.
as §2

JAK3 (a.a. 781-1124) = biological target: T3, JAK3 (a.a. 781-1124) (Homo sapiens, UniProt P52333); assay: JAK3 enzyme activity assay (SRCtide phosphorylation, Caliper); format: biochemical; conditions: 1 uM ATP; read-out: JAK3 Inhibition IC50
T3 construct: JAK3 (a.a. 781-1124, ThermoFisher); purchased ThermoFisher
Method: The activity of JAK3 (a.a. 781-1124, ThermoFisher) was quantified by measuring the phosphorylation of SRCtide (FAM-GEEPLYWSFPAKKK-NH2). Kinase reactions were run in a 384-well Greiner plate with 2% final DMSO concentration under the buffer conditions of 20 mM HEPES, pH 7.5, 10 mM MgCl2, 0.01% BSA, and 0.0005% Tween-20. The kinase reaction components were 2.5 nM JAK3, 1 μM SRCtide peptide and 1 uM ATP. Examples were tested in dose-response starting at […] (11 concentrations, 3-fold serial dilution, duplicate reactions). The reactions were incubated at room temperature for 40 minutes, then stopped by adding a 1:1 volume of 30 mM EDTA in 20 mM HEPES, pH 7.5 (15 mM EDTA final). After the reaction was stopped, the phosphorylated and unphosphorylated peptides were separated and quantified using a Caliper LC3000/EZ-Reader system and HTS Well Analyzer Software (Caliper, A PerkinElmer Company, Hopkinton, Mass.). GraFit (Erithacus Software Ltd., Horley, U.K.) was used to calculate inhibitor potency by fitting dose-response data to the 4-parameter logistical IC50 equation.

[1] = system: IL-12 stimulated STAT4 phosphorylation on Tyr693 (JAK2/TYK2); assay: JAK2/TYK2 cellular target modulation: IL-12 stimulated phospho-STAT4 in human PBMC; format: cell-based; conditions: IL-12 1.7 ng/ml, read-out: IL12-STAT4 IC50
Source text: (§3) Target modulation was based upon the ability of a compound to inhibit JAK isoform specific phosphorylation of selected substrates. IL-2 stimulated STAT5 phosphorylation on Tyr694 was used to assess JAK1/3 compound selectivity. GM-CSF stimulated STAT5 phosphorylation on Tyr694 was used to assess JAK2 compound selectivity. IFNγ stimulated STAT1 phosphorylation on Tyr701 was used to assess JAK1/2 compound selectivity. IL-12 stimulated STAT4 phosphorylation on Tyr693 was used to assess JAK2/TYK2 compound selectivity. For all four assays, human PBMC from frozen stocks were thawed, pelleted, resuspended in complete media (90% RPMI, 10% heat inactivated FBS, 10 mM HEPES, 47 μM 2-ME, pen/strep) and placed in wells of a 96 well V-bottom plate at 200,000 per well in 120 μl complete media. Compounds were added as 15 μl per well of 10× working stock solutions in complete media with 1% DMSO (or medium with 1% DMSO for controls) and placed on a plate shaker in a 37° C. incubator with 5% CO2 for 1 hour with gentle shaking (setting of 3). Stimulation used the addition of soluble cytokines. For the JAK1/3 phospho-STAT5 assay, 15 μl of 10× working stock recombinant human IL-2 was added to a final concentration of 25 ng/ml. For the JAK2 phospho-STAT5 assay, 15 μl of 10× working stock recombinant human GM-CSF was added to a final concentration of 5 ng/ml. For the JAK1/2 phospho-STAT1 assay, 15 μl of 10× working stock of recombinant human IFNγ was added to a final concentration of 10 ng/ml. For the JAK2/TYK2 phospho-STAT4 assay, 15 μl of 10× working stock of recombinant human IL-12 was added to a final concentration of 1.7 ng/ml. Plates were then placed back on the plate shaker in the incubator for an additional 5, 5, 10, and 25 minutes respectively upon which the plates were removed from the incubator, sealed with a plate sealer and the cells pelleted at 400×g for 5 minutes. After pelleting, the media was removed by aspiration and the cells were lysed in assay specific cell lysis buffer. The levels of phospho-STAT5 were determined using a Phospho (Tyr694)STAT5a,b Whole Cell Lysate kit from Meso Scale Discovery. Levels of phospho-STAT1 were determined using a CST-PathScan Phospho-STAT1 (Tyr701) Sandwich ELISA kit. Levels of phospho-STAT4 were determined using a Phospho-STAT4 (Tyr693) Whole Cell Lysate kit from Meso Scale Discovery.

JAK1 = biological target: T4, JAK1 (Homo sapiens, UniProt P23458); assay: JAK1 enzyme activity assay (Thermo Fisher Selectscreen, Z-lyte); format: biochemical; conditions: read-out: JAK1 Inhibition IC50
T4 construct: purchased Thermo Fisher Scientific (SelectScreen service)
Method: as §1
JAK1: The 2×JAK-enzyme/Tyr 06 mixture is prepared in 50 mM HEPES pH 6.5, 0.01% BRIJ-35, 10 mM MgCl2, 1 mM EGTA, 0.02% NaN3. The final 10 μL of the Kinase Reaction consists of 21.2-91.5 ng JAK1 and 2 μM Tyr 06 in 50 mM HEPES pH 7.0, 0.01% BRIJ-35, 10 mM MgCl2, 1 mM EGTA, 0.01% NaN3. After the one hour Kinase Reaction incubation, 5 μL of a 1:128 dilution of Development Reagent is added.
as §2

[2] = system: IL-2 stimulated STAT5 phosphorylation on Tyr694 (JAK1/3); assay: JAK1/3 cellular target modulation: IL-2 stimulated phospho-STAT5 in human PBMC; format: cell-based; conditions: IL-2 25 ng/ml, read-out: IL2-STAT5 IC50
Source text: as §3

[3] = system: IFNγ stimulated STAT1 phosphorylation on Tyr701 (JAK1/2); assay: JAK1/2 cellular target modulation: IFNγ stimulated phospho-STAT1 in human PBMC; format: cell-based; conditions: IFNγ 10 ng/ml, read-out: Infγ-STAT1 IC50
Source text: as §3

T1 sequence (P29597 whole entry): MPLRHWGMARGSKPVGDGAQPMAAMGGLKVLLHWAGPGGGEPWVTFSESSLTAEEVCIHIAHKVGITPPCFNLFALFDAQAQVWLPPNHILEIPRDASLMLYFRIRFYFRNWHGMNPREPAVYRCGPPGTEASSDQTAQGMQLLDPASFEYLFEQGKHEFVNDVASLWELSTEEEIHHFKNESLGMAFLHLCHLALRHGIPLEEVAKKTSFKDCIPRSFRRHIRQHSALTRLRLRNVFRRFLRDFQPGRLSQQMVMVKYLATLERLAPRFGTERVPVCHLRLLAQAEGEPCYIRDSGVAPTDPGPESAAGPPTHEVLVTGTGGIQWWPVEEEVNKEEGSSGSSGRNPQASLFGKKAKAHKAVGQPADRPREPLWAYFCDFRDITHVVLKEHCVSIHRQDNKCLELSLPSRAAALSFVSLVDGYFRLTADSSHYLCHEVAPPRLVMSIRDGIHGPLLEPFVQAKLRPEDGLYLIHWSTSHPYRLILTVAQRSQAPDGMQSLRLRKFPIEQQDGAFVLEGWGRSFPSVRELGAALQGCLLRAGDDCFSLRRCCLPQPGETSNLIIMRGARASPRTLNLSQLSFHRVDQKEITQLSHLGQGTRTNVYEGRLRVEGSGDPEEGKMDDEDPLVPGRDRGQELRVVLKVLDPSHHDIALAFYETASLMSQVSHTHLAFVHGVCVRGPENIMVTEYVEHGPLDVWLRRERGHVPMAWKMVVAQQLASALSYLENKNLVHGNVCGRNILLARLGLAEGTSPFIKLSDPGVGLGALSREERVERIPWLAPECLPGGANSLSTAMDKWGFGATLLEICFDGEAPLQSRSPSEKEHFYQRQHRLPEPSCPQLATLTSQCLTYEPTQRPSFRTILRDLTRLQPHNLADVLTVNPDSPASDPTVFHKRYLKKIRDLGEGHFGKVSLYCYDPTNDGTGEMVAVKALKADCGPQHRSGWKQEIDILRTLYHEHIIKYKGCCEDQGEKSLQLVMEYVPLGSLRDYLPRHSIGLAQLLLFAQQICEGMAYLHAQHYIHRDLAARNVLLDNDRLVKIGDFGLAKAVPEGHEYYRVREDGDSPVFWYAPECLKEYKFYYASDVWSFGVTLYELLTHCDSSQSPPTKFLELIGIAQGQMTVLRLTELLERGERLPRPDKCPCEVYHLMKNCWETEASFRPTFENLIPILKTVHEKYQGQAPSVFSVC
T3 sequence (P52333 781-1124): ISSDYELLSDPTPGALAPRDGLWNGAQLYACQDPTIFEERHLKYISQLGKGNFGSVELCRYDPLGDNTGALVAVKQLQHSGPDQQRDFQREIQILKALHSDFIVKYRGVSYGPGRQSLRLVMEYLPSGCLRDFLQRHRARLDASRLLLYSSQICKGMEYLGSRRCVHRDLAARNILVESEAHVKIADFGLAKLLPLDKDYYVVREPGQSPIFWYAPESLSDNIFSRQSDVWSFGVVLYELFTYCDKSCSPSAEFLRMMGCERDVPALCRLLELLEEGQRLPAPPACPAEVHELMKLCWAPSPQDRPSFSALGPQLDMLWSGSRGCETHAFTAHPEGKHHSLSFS
T2 sequence (O60674 whole entry): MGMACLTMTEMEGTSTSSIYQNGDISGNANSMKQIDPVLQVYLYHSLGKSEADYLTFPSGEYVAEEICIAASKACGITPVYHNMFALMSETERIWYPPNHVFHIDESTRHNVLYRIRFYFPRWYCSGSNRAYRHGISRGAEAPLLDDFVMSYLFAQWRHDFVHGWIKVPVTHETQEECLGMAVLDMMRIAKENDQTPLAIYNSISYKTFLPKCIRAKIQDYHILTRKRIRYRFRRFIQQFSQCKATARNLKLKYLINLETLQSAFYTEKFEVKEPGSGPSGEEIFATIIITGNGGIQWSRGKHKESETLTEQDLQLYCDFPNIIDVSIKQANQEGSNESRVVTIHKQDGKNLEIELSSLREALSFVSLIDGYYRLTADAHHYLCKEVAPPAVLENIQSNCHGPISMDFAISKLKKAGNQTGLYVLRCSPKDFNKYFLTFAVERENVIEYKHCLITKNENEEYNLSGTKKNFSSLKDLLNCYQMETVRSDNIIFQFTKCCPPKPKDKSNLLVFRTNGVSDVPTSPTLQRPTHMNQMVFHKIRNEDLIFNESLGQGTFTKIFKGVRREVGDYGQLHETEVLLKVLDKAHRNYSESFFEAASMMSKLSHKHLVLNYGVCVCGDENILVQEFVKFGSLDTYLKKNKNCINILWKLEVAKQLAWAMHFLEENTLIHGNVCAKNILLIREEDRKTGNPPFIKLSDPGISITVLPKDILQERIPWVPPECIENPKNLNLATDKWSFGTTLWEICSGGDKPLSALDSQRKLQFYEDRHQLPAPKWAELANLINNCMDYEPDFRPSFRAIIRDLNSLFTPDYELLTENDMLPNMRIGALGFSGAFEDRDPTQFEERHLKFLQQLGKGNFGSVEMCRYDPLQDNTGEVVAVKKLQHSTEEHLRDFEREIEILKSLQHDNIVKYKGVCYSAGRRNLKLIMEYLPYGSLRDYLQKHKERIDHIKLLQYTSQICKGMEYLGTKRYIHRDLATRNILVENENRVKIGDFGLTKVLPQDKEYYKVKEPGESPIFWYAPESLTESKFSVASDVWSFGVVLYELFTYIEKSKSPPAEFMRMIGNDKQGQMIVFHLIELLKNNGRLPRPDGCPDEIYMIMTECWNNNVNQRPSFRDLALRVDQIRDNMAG
T4 sequence (P23458 whole entry): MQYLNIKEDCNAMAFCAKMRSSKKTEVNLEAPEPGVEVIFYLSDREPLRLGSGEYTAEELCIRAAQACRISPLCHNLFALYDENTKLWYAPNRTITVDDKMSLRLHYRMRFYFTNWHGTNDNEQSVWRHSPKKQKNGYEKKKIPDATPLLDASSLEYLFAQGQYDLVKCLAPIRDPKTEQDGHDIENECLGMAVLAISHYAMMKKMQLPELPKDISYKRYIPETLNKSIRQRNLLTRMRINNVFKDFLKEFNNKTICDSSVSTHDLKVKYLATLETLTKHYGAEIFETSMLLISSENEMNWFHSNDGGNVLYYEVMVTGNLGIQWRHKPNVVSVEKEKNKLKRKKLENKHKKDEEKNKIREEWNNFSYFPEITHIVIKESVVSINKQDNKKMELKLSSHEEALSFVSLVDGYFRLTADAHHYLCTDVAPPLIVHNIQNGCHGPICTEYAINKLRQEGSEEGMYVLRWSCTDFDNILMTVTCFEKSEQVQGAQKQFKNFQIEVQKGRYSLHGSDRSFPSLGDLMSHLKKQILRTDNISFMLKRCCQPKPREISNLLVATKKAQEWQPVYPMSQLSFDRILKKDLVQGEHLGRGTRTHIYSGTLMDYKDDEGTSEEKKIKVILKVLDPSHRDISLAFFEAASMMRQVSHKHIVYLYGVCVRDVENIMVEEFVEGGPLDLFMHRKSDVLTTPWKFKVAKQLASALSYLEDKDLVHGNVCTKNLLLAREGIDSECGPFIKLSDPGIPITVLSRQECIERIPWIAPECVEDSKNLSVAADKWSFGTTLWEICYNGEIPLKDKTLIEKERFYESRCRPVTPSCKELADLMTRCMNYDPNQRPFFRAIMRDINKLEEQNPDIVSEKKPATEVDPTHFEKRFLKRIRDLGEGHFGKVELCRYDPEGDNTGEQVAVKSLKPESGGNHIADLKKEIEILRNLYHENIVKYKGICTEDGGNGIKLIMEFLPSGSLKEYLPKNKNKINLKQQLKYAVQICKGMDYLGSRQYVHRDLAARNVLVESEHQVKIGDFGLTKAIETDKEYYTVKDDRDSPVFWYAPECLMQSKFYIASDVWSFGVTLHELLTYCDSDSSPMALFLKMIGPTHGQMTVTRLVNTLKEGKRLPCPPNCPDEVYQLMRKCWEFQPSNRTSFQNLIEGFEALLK

| SMILES | IC50 (Tyk-2) [nM] | IC50 (JAK2) [nM] | IC50 (JAK3 (a.a. 781-1124)) [nM] | IC50 [1] [nM] | IC50 (JAK1) [nM] | IC50 [2] [nM] | IC50 [3] [nM] |
| --- | --- | --- | --- | --- | --- | --- | --- |
| Cc1nnc(-c2cnc3[nH]ccc3c2N[C@H]2C[C@@H](NS(=O)(=O)c3cccc(C#N)c3)C2)o1 [Example 81, 3-cyano-N-((1s,3s)-3-((5-(5-methyl-1,3,4-oxadiazol-2-yl)-1H-pyrrolo[2,3-b]pyridin-4-yl)amino)cyclobutyl)benzenesulfonamide] | 10 to 100 | ≤ 10 | 10 to 100 | > 1000 | ≤ 10 | ≤ 100 | 100 to 1000 |
| CCOC(=O)c1cnc2[nH]ccc2c1N[C@H]1C[C@@H](NS(=O)(=O)c2cc(C#N)ccn2)C1 [Example 5, ethyl 4-(((1s,3s)-3-((4-cyanopyridine)-2-sulfonamido)cyclobutyl)amino)-1H-pyrrolo[2,3-b]pyridine-5-carboxylate] | 10 to 100 | 10 to 100 | 10 to 100 | > 1000 | ≤ 10 | 100 to 1000 | 100 to 1000 |
| N#Cc1cccc(S(=O)(=O)N[C@H]2C[C@@H](Nc3c(-c4nnco4)cnc4[nH]ccc34)C2)c1 [Example 79, N-((1s,3s)-3-((5-(1,3,4-oxadiazol-2-yl)-1H-pyrrolo[2,3-b]pyridin-4-yl)amino)cyclobutyl)-3-cyanobenzenesulfonamide] | 10 to 100 | ≤ 10 | 10 to 100 | > 1000 | ≤ 10 | 100 to 1000 | 100 to 1000 |
| N#Cc1cccc(S(=O)(=O)N[C@H]2C[C@@H](Nc3c(-c4ncco4)cnc4[nH]ccc34)C2)c1 [Example 7, 3-cyano-N-((1s,3s)-3-((5-(oxazol-2-yl)-1H-pyrrolo[2,3-b]pyridin-4-yl)amino)cyclobutyl)benzenesulfonamide] | 10 to 100 | ≤ 10 | 10 to 100 | > 1000 | ≤ 10 | 100 to 1000 | 100 to 1000 |

Now from value to compound:

| IC50 (Tyk-2) [nM] | IC50 (JAK2) [nM] | IC50 (JAK3 (a.a. 781-1124)) [nM] | IC50 [1] [nM] | IC50 (JAK1) [nM] | IC50 [2] [nM] | IC50 [3] [nM] | SMILES |
| --- | --- | --- | --- | --- | --- | --- | --- |
| ≤ 10 | ≤ 10 | ≤ 10 | > 1000 | ≤ 10 | ≤ 100 | 100 to 1000 | N#Cc1cccc(S(=O)(=O)N[C@H]2C[C@@H](Nc3c(-c4ccncn4)cnc4[nH]ccc34)C2)c1 [Example 64, 3-cyano-N-((1s,3s)-3-((5-(pyrimidin-4-yl)-1H-pyrrolo[2,3-b]pyridin-4-yl)amino)cyclobutyl)benzenesulfonamide] |
| ≤ 10 | ≤ 10 | 10 to 100 | > 1000 | ≤ 10 | ≤ 100 | 100 to 1000 | N#Cc1cccc(S(=O)(=O)N[C@H]2C[C@@H](Nc3c(-c4nncs4)cnc4[nH]ccc34)C2)c1 [Example 78, N-((1s,3s)-3-((5-(1,3,4-thiadiazol-2-yl)-1H-pyrrolo[2,3-b]pyridin-4-yl)amino)cyclobutyl)-3-cyanobenzenesulfonamide] |
| 10 to 100 | 10 to 100 | ≤ 10 | 100 to 1000 | ≤ 10 | ≤ 100 | 100 to 1000 | Cc1cnc(-c2cnc3[nH]ccc3c2N[C@H]2C[C@@H](NS(=O)(=O)c3cccc(C#N)c3)C2)s1 [Example 74, 3-cyano-N-((1s,3s)-3-((5-(5-methylthiazol-2-yl)-1H-pyrrolo[2,3-b]pyridin-4-yl)amino)cyclobutyl)benzenesulfonamide] |
| 10 to 100 | 10 to 100 | 10 to 100 | > 1000 | ≤ 10 | ≤ 100 | 100 to 1000 | CCCS(=O)(=O)N[C@H]1C[C@@H](Nc2c(-c3nccs3)cnc3[nH]ccc23)C1 [Example 70, N-((1s,3s)-3-((5-(thiazol-2-yl)-1H-pyrrolo[2,3-b]pyridin-4-yl)amino)cyclobutyl)propane-1-sulfonamide] |
